From patent US20260015350A1, “AZAQUINAZOLINE PAN-KRAS INHIBITORS” (Mirati Therapeutics, Inc., priority 2022, published 2026)

Tests used:
[1] = test system: KRas-mediated phosphorylation of ERK in AsPC-1 cells; test: Inhibition of KRas-mediated phosphorylation of ERK (Cisbio HTRF pERK), AsPC-1 cells; assay type: cell-based; conditions: Homo sapiens, ASPC1, AsPC-1 cells; HTRF pERK
Summary of the method: (§1)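 Cells were seeded at 6,000 per well and treated for 3 hrs with compound in a 10-dose, 3-fold series from 10 uM (0.8% final DMSO), with 0.2 uM Trametinib as Min control. Lysates made at 4° C over 40 mins were incubated 2 hrs at room temperature with d2- and Cryptate-labelled antibodies, then read by HTRF.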

[2] = test system: KRas-mediated phosphorylation of ERK in H727 cells; test: Inhibition of KRas-mediated phosphorylation of ERK (Cisbio HTRF pERK), H727 cells; assay type: cell-based; conditions: Homo sapiens, NCI-H727, H727 cells; HTRF pERK
Summary of the method: as §1

[3] = test system: KRas-mediated phosphorylation of ERK in A549 cells; test: Inhibition of KRas-mediated phosphorylation of ERK (Cisbio HTRF pERK), A549 cells; assay type: cell-based; conditions: Homo sapiens, HTRF pERK
Summary of the method: as §1

[4] = test system: KRas-mediated phosphorylation of ERK in H460 cells; test: Inhibition of KRas-mediated phosphorylation of ERK (Cisbio HTRF pERK), H460 cells; assay type: cell-based; conditions: Homo sapiens, NCI-H460, HTRF pERK
Summary of the method: as §1

[5] = test system: KRas-mediated phosphorylation of ERK in HCT116 cells; test: Inhibition of KRas-mediated phosphorylation of ERK (Cisbio HTRF pERK), HCT116 cells; assay type: cell-based; conditions: Homo sapiens, HCT-116, HTRF pERK
Summary of the method: as §1

[6] = test system: KRas-mediated phosphorylation of ERK in H358 cells; test: Inhibition of KRas-mediated phosphorylation of ERK (Cisbio HTRF pERK), H358 cells; assay type: cell-based; conditions: Homo sapiens, NCI-H358, HTRF pERK
Summary of the method: as §1

[7] = test system: KRas-mediated phosphorylation of ERK in H2009 cells; test: Inhibition of KRas-mediated phosphorylation of ERK (Cisbio HTRF pERK), H2009 cells; assay type: cell-based; conditions: Homo sapiens, NCI-H2009
Method: Inhibition of KRas Phosphorylation of ERK (HTRF) by Exemplary Compounds of Formula (I)
Cisbio HTRF Advanced PERK Assay Catalog #64AERPEH
1. To harvest cells from flask using 0.05% Trypsin/EDTA solution. Add 10 mL of media to stop trypsinizing. Pipette the cells into a conical bottom 50 mL centrifuge tube and centrifuge 5 min×1000 rpm.
2. Re-suspend the cell pellet in media, take a cell count, and then adjust the cell density using fresh media.
3. Seed 6,000 cells into cell culture plate with 50 μL media. […]
4. Incubate cell plate overnight in a 37° C., 5% CO2 incubator.
1. Use Tecan to complete the compound addition. Compounds start from 10 uM top, 3-fold dilution, and 10 doses. The final DMSO concentration is 0.8%. Dispensed 0.2 uM Trametinib as Min control.
2. Incubate cell plate for 3 hrs in the incubator.
Detection with Cisbio pERK HTRF Kit
1. Dilute 1 volume of 4× lysis buffer with 3 volumes of deionized water. Then, add 100× the blocking reagent. Keep lysis buffer on the ice.
2. At the end of the compound treatment, flick-off the media.
3. Add 35 μL of lysis buffer per well using a Multidrop Combi. Then place on a plate agitator shaking at 300 rpm at 4° C. for 40 mins.
4. Make up the HTRF antibody buffer. For each assay plate, mix 50 μL of d2-conjugate antibody with 950 μL of detection buffer. Similarly, mix 50 μL of Cryptate antibody with 950 μL of detection buffer. Then mix the two diluted antibodies together.
5. Dispense 3.4 μL the antibody buffer to wells of an empty assay plate. Seal the plate and centrifuge plate 30 sec×1000 rpm.
6. At the end of the 4° C. lysis, centrifuge the lysate plates 3 mins×1500 rpm.
7. Use the Bravo to transfer 13.6 μL of lysate from cell culture plate to assay plate. Then incubate assay plate for 2 hrs at room temperature.
8. At the end of incubation, read plate on the Envision after centrifuging plate 30 sec×1000 rpm.

[8] = target: T1, KRas^WT (Homo sapiens, UniProt P01116); test: KRas binding assay (TR-FRET tracer displacement), KRas WT; conditions: TR-FRET tracer displacement, KRas WT
T1 construct: Biotinylated KRas (corresponding to amino acids 1-169, produced at Accelegan Inc.); biotin (biotinylated); purchased Accelegan Inc
T1 sequence (P01116 1-169 isoform P01116-2): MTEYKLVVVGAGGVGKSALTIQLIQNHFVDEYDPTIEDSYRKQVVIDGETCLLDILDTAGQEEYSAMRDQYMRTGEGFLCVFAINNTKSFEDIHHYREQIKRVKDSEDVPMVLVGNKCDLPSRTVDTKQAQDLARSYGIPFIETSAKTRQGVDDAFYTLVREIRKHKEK

[9] = target: T2, KRas^G12C (Homo sapiens, UniProt P01116, G12C); test: KRas binding assay (TR-FRET tracer displacement), KRas G12C; conditions: TR-FRET tracer displacement, KRas G12C
T2 construct: Biotinylated KRas (corresponding to amino acids 1-169, produced at Accelegan Inc.); biotin (biotinylated); purchased Accelegan Inc
T2 sequence (P01116 1-169 isoform P01116-2 G12C): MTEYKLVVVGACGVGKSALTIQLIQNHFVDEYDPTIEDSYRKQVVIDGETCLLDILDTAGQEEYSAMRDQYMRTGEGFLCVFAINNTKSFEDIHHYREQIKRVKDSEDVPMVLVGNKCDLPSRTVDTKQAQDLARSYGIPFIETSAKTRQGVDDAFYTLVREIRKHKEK

[10] = target: T3, KRas^G12D (Homo sapiens, UniProt P01116, G12D); test: KRas binding assay (TR-FRET tracer displacement), KRas G12D
T3 construct: Biotinylated KRas (corresponding to amino acids 1-169, produced at Accelegan Inc.); biotin (biotinylated); purchased Accelegan Inc
T3 sequence (P01116 1-169 isoform P01116-2 G12D): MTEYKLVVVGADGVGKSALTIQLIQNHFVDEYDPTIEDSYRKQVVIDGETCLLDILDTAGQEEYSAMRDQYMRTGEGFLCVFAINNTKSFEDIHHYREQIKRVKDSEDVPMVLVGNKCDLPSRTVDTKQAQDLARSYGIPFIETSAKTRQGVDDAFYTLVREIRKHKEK

[11] = target: T4, KRas^G12S (Homo sapiens, UniProt P01116, G12S); test: KRas binding assay (TR-FRET tracer displacement), KRas G12S; conditions: TR-FRET tracer displacement, KRas G12S
T4 construct: Biotinylated KRas (corresponding to amino acids 1-169, produced at Accelegan Inc.); biotin (biotinylated); purchased Accelegan Inc
T4 sequence (P01116 1-169 isoform P01116-2 G12S): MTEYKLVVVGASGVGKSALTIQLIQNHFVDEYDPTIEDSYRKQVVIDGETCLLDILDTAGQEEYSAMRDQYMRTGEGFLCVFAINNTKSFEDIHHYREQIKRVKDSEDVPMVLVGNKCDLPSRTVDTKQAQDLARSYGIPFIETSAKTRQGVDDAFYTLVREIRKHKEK

[12] = target: T5, KRas^G12V (Homo sapiens, UniProt P01116, G12V); test: KRas binding assay (TR-FRET tracer displacement), KRas G12V
T5 construct: Biotinylated KRas (corresponding to amino acids 1-169, produced at Accelegan Inc.); biotin (biotinylated); purchased Accelegan Inc
T5 sequence (P01116 1-169 isoform P01116-2 G12V): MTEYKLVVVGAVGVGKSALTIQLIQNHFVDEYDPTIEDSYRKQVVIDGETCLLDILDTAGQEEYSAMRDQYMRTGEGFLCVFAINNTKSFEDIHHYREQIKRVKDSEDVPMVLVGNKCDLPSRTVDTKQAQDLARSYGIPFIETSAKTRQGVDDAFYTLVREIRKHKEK

[13] = target: T6, KRas^G12R (Homo sapiens, UniProt P01116, G12R); test: KRas binding assay (TR-FRET tracer displacement), KRas G12R
T6 construct: Biotinylated KRas (corresponding to amino acids 1-169, produced at Accelegan Inc.); biotin (biotinylated); purchased Accelegan Inc
T6 sequence (P01116 1-169 isoform P01116-2 G12R): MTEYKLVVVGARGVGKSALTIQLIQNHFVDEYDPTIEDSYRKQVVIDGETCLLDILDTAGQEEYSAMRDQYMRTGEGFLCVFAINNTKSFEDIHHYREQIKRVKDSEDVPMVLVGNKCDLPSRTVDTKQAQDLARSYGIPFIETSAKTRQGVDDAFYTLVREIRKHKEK

[14] = test system: KRas-mediated phosphorylation of ERK in MKN1 cells; test: Inhibition of KRas-mediated phosphorylation of ERK (Cisbio HTRF pERK), MKN1 cells; assay type: cell-based; conditions: Homo sapiens, MKN-1
Summary of the method: (§2)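 Seeding density was 6,000 cells/well; medium RPMI, 10% FBS. Read-out by homogeneous time-resolved fluorescence (pERK) after 4 hours covered at room temperature.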

[15] = test system: KRas-mediated phosphorylation of ERK in PSN1 cells; test: Inhibition of KRas-mediated phosphorylation of ERK (Cisbio HTRF pERK), PSN1 cells; assay type: cell-based; conditions: Homo sapiens
Summary of the method: as §2

[16] = target: T7, KRas^G12A (Homo sapiens, UniProt P01116, G12A); test: KRas binding assay (TR-FRET tracer displacement), KRas G12A; conditions: TR-FRET tracer displacement, KRas G12A
T7 construct: Biotinylated KRas (corresponding to amino acids 1-169, produced at Accelegan Inc.); biotin (biotinylated); purchased Accelegan Inc
T7 sequence (P01116 1-169 isoform P01116-2 G12A): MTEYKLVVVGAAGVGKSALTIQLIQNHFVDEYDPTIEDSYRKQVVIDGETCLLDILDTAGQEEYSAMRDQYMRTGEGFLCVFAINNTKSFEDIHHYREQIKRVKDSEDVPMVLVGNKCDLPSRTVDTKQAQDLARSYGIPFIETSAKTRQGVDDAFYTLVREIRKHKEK

[17] = target: T8, KRas^G13D (Homo sapiens, UniProt P01116, G13D); test: KRas binding assay (TR-FRET tracer displacement), KRas G13D; conditions: TR-FRET tracer displacement, KRas G13D
T8 construct: Biotinylated KRas (corresponding to amino acids 1-169, produced at Accelegan Inc.); biotin (biotinylated); purchased Accelegan Inc
T8 sequence (P01116 1-169 isoform P01116-2 G13D): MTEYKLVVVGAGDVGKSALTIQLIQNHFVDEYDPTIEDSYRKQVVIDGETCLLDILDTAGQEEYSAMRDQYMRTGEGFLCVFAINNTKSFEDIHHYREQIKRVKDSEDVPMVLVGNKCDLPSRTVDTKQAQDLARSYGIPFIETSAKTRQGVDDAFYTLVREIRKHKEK

[18] = target: T9, KRas^Q61H (Homo sapiens, UniProt P01116, Q61H); test: KRas binding assay (TR-FRET tracer displacement), KRas Q61H; conditions: TR-FRET tracer displacement, KRas Q61H
T9 construct: Biotinylated KRas (corresponding to amino acids 1-169, produced at Accelegan Inc.); biotin (biotinylated); purchased Accelegan Inc
T9 sequence (P01116 1-169 isoform P01116-2 Q61H): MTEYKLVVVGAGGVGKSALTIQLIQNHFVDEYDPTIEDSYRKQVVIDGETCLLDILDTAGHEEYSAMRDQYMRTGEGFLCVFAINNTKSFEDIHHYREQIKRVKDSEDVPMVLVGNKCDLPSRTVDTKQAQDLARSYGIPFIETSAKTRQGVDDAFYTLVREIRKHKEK

For CCc1c(F)ccc2cc(O)cc(-c3ncc4c(N5C[C@@H]6C[C@H](C5)[C@H](O)C6)nc(OC[C@@]56CCCN5C/C(=C\F)C6)nc4c3F)c12 [Example 942, (1R,5R,6R)-3-(7-(8-ethyl-7-fluoro-3-hydroxynaphthalen-1-yl)-8-fluoro-2-(((S,Z)-2-(fluoromethylene)tetrahydro-1H-pyrrolizin-7a(5H)-yl)methoxy)pyrido[4,3-d]pyrimidin-4-yl)-3-azabicyclo[3.2.1]octan-6-ol], the IC50 [1] was 2 nM, the IC50 [2] was 1 nM and the IC50 [3] was 1 nM. The IC50 [4] was 1 nM, the IC50 [5] was 1 nM and the IC50 [6] was 0.4 nM. It also gave an IC50 [7] of 1 nM.
Work on C[C@@H]1C[C@@H]1c1c(Cl)cc(O)cc1-c1ncc2c(N3C[C@H]4CC[C@@H](C3)N4)nc(OC[C@@]34CCCN3C/C(=C\F)C4)nc2c1F [Example 946, 3-(4-((1R,5S)-3,8-diazabicyclo[3.2.1]octan-3-yl)-8-fluoro-2-(((S,Z)-2-(fluoromethylene)tetrahydro-1H-pyrrolizin-7a(5H)-yl)methoxy)pyrido[4,3-d]pyrimidin-7-yl)-5-chloro-4-((1S,2R)-2-methylcyclopropyl)phenol] yielded an IC50 [1] of 8 nM, an IC50 [2] of 847 nM and an IC50 [3] of 984 nM. It also gave an IC50 [4] of 494 nM, an IC50 [5] of 628 nM and an IC50 [6] of 212 nM. For the same molecule, the IC50 [7] was 229 nM.
With C[C@@H]1C[C@@H]1c1c(Cl)cc(O)cc1-c1ncc2c(N3CCC[C@@](C)(O)C3)nc(OC[C@@]34CCCN3C/C(=C\F)C4)nc2c1F [Example 944, (R)-1-(7-(3-chloro-5-hydroxy-2-((1S,2R)-2-methylcyclopropyl)phenyl)-8-fluoro-2-(((S,Z)-2-(fluoromethylene)tetrahydro-1H-pyrrolizin-7a(5H)-yl)methoxy)pyrido[4,3-d]pyrimidin-4-yl)-3-methylpiperidin-3-ol] the IC50 [8] was < 2 nM, the IC50 [9] was < 2 nM and the IC50 [10] was < 2 nM. For the same molecule, the IC50 [11] was < 2 nM, the IC50 [12] was < 2 nM and the IC50 [1] was 2 nM. The IC50 [2] was 6 nM, the IC50 [3] was 6 nM and the IC50 [4] was 3 nM. The IC50 [5] was 6 nM, the IC50 [6] was 1 nM and the IC50 [7] was 1 nM.
CCc1c(F)ccc2cc(O)cc(-c3ncc4c(N5CCC[C@@](C)(O)C5)nc(OC[C@@]56CCCN5C/C(=C\F)C6)nc4c3F)c12 [Example 791, (R)-1-(7-(8-ethyl-7-fluoro-3-hydroxynaphthalen-1-yl)-8-fluoro-2-(((S,Z)-2-(fluoromethylene)tetrahydro-1H-pyrrolizin-7a(5H)-yl)methoxy)pyrido[4,3-d]pyrimidin-4-yl)-3-methylpiperidin-3-ol] was tested, and the IC50 [10] was < 2 nM, the IC50 [13] was < 2 nM and the IC50 [12] was < 2 nM. For the same molecule, the IC50 [14] was 0.1 nM, the IC50 [15] was 80 nM and the IC50 [1] was 1 nM. The IC50 [2] was 2 nM, the IC50 [3] was 1 nM and the IC50 [4] was 1 nM. The IC50 [5] was 2 nM, the IC50 [6] was 1 nM and the IC50 [7] was 1 nM.
For O=S1(=O)NCC2(CCCN(c3nc(OCC45CCCN4CCC5)nc4c(F)c(-c5cc(O)cc(Cl)c5C5CC5)ncc34)C2)N1 (stereo not shown) [Example 745, 7-(7-(3-chloro-2-cyclopropyl-5-hydroxyphenyl)-8-fluoro-2-((hexahydro-1H-pyrrolizin-7a-yl)methoxy)pyrido[4,3-d]pyrimidin-4-yl)-2-thia-1,3,7-triazaspiro[4.5]decane 2,2-dioxide], the IC50 [8] was 4 nM, the IC50 [16] was < 2 nM and the IC50 [9] was 3 nM. For the same molecule, the IC50 [10] was < 2 nM, the IC50 [13] was < 2 nM and the IC50 [11] was 5 nM. For the same molecule, the IC50 [12] was < 2 nM, the IC50 [17] was 3 nM and the IC50 [18] was < 2 nM. It also gave an IC50 [14] of 511 nM, an IC50 [15] of 4280 nM and an IC50 [1] of 867 nM. It also gave an IC50 [2] of 701 nM, an IC50 [3] of 815 nM and an IC50 [4] of 516 nM. It also gave an IC50 [5] of 1710 nM and an IC50 [6] of 185 nM.
